{"source": "paper PMC11843658", "about": "(Journal of Enzyme Inhibition and Medicinal Chemistry, 2025)", "origin": "cited, not measured here", "molecular_target": "LSD1 (Homo sapiens, UniProt O60341)", "set-up": "purchased Cayman Chemical (Ann Arbor, MI)", "details": "cited from earlier work"}
{"smiles": "CC/C(=C\\c1ccccc1)[C@@H]1C[C@H]1NC1CC2(C1)CN(CCO)C2", "note": "[Compound 5]", "values": [{"measurement": "mode of LSD1 inhibition", "value": "covalently inhibits LSD1"}]}
